Data: patent EP0013067A1, “Bicyclic beta-lactam antibacterial agents, their use in pharmaceutical compositions, processes for their preparation and intermediates for use in such processes” (BEECHAM GROUP PLC, priority 1978, dated 1980)
Like-named read-outs stand apart in the source and are kept apart here.

Legend:
Type in all cases: cell-based
[1] = antibacterial activity (general statement, no method given); settings: prepared and tested by the applicant; no method or organisms given
[2] = test system: Klebsiella aerogenes A; test: MIC, microtitre using Nutrient broth; settings: read-out: MIC Broth
Source text: (§1) The ninimum inhibitory concentrations (MIC) cf this compound required to inhibit the growth of various bacteria are tabulated balow: […]

[3] = test system: Escherichia coli 0111; test: MIC, microtitre using Nutrient broth; settings: Microtitre using Nutrient broth, inoculum 0.001 ml of an undilute overnight broth culture
Source text: as §1

[4] = test system: Escherichia coli JT 39; test: MIC, microtitre using Nutrient broth
Source text: as §1

[5] = test system: Proteus mirabilis C977; test: MIC, microtitre using Nutrient broth
Source text: as §1

[6] = test system: Pseudomonas aeruginosa A; test: MIC, microtitre using Nutrient broth; settings: read-out: MIC Broth
Source text: as §1

[7] = test system: Staphylococcus aureus Oxford; test: MIC, microtitre using Nutrient broth; settings: read-out: MIC Broth
Source text: as §1

[8] = test system: Staphylococcus aureus Russell; test: MIC, microtitre using Nutrient broth; settings: read-out: MIC Broth
Source text: as §1

[9] = test system: Citrobacter freundii E8; test: MIC, DST agar + 10% horse blood
Source text: as §1

[10] = test system: E. coli ESS; test: MIC, DST agar + 10% horse blood; settings: Escherichia coli, inoculum 0.001 ml of an undilute overnight broth culture
Source text: as §1

[11] = test system: Serratia marcescens US20; test: MIC, DST agar + 10% horse blood
Source text: as §1

[12] = test system: Streptococcus faecalis I; test: MIC, DST agar + 10% horse blood; settings: Enterococcus faecalis, read-out: MIC Agar
Source text: as §1

[13] = test system: Proteus morganii I580; test: MIC, DST agar + 10% horse blood; settings: Morganella morganii
Source text: as §1

[14] = test system: Klebsiella aerogenes A; test: MIC, DST agar + 10% horse blood; settings: read-out: MIC Agar
Source text: as §1

[15] = test system: Streptococcus pyogenes CN10; test: MIC, DST agar + 10% horse blood
Source text: as §1

[16] = test system: Escherichia coli 0111; test: MIC, DST agar + 10% horse blood; settings: Escherichia coli 0111, inoculum 0.001 ml of an undilute overnight broth culture
Source text: as §1

[17] = test system: Bacillus subtilis A; test: MIC, DST agar + 10% horse blood; settings: read-out: MIC Agar
Source text: as §1

[18] = test system: Streptococcus pneumoniae CN33; test: MIC, DST agar + 10% horse blood
Source text: as §1

[19] = test system: Salmonella typhimurium CT10; test: MIC, DST agar + 10% horse blood; settings: Salmonella enterica, read-out: MIC Agar
Source text: as §1

[20] = test system: Escherichia coli JT 39; test: MIC, DST agar + 10% horse blood
Source text: as §1

[21] = test system: Proteus rettgeri WM16; test: MIC, DST agar + 10% horse blood; settings: Providencia rettgeri
Source text: as §1

[22] = test system: Staphylococcus aureus 1517; test: MIC, DST agar + 10% horse blood
Source text: as §1

[23] = test system: Proteus mirabilis C977; test: MIC, DST agar + 10% horse blood
Source text: as §1

[24] = test system: Pseudomonas aeruginosa A; test: MIC, DST agar + 10% horse blood; settings: read-out: MIC Agar
Source text: as §1

[25] = test system: Proteus vulgaris W091; test: MIC, DST agar + 10% horse blood
Source text: as §1

[26] = test system: Staphylococcus aureus Oxford; test: MIC, DST agar + 10% horse blood; settings: read-out: MIC Agar
Source text: as §1

[27] = test system: Staphylococcus aureus Russell; test: MIC, DST agar + 10% horse blood; settings: read-out: MIC Agar
Source text: as §1

[28] = test system: Shigella sonnei MB 11967; test: MIC, DST agar + 10% horse blood; settings: MB11967, inoculum 0.001 ml of an undilute overnight broth culture
Source text: as §1

[29] = test system: Enterobacter cloacae N1; test: MIC, DST agar + 10% horse blood; settings: Enterobacter cloacae, N1, read-out: MIC Agar
Source text: as §1

[30] = Staphylococcus aureus Oxford, Microtitre using Nutrient broth, inoculum 0.001 ml of an undilute overnight broth culture
[31] = Staphylococcus aureus Russell, Microtitre using Nutrient broth, inoculum 0.001 ml of an undilute overnight broth culture
[32] = Streptococcus pyogenes CN10, DST agar + 10% horse blood, inoculum 0.001 ml of an undilute overnight broth culture, read-out: MIC Agar
[33] = Bacillus subtilis A, DST agar + 10% horse blood, inoculum 0.001 ml of an undilute overnight broth culture
[34] = Staphylococcus aureus Oxford, DST agar + 10% horse blood, inoculum 0.001 ml of an undilute overnight broth culture
[35] = Staphylococcus aureus Russell, DST agar + 10% horse blood, inoculum 0.001 ml of an undilute overnight broth culture
[36] = Escherichia coli, JT39, read-out: MIC Broth
[37] = Proteus mirabilis, C977, read-out: MIC Broth
[38] = Citrobacter freundii, E8, read-out: MIC Agar
[39] = Serratia marcescens, US20, read-out: MIC Agar
[40] = Streptococcus pyogenes, CN10, read-out: MIC Agar
[41] = Streptococcus pneumoniae, CN33, read-out: MIC Agar
[42] = Escherichia coli, JT39, read-out: MIC Agar
[43] = Staphylococcus aureus, 1517, read-out: MIC Agar
[44] = Proteus mirabilis, C977, read-out: MIC Agar
[45] = Proteus vulgaris, W091, read-out: MIC Agar

| SMILES | MIC [3] [µg/mL] | MIC [7, 30] [µg/mL] | MIC [8, 31] [µg/mL] | MIC [10] [µg/mL] | MIC [15, 32] [µg/mL] | MIC [16] [µg/mL] | MIC [17, 33] [µg/mL] | MIC [26, 34] [µg/mL] | MIC [27, 35] [µg/mL] | MIC ([2]; Klebsiella aerogenes) [µg/mL] | MIC [4, 36] [µg/mL] | MIC [5, 37] [µg/mL] | MIC ([6]; Pseudomonas aeruginosa) [µg/mL] | MIC ([7]; Staphylococcus aureus) [µg/mL] | MIC ([8]; Staphylococcus aureus) [µg/mL] | MIC [9, 38] [µg/mL] | MIC [15, 40] [µg/mL] | MIC [18, 41] [µg/mL] | MIC ([26]; Staphylococcus aureus) [µg/mL] | MIC ([27]; Staphylococcus aureus) [µg/mL] | further results |
| --- | --- | --- | --- | --- | --- | --- | --- | --- | --- | --- | --- | --- | --- | --- | --- | --- | --- | --- | --- | --- | --- |
| O=C(O)C1=CSC2CC(=O)N12 (stereo not drawn) |  |  |  |  |  |  |  |  |  |  |  |  |  |  |  |  |  |  |  |  | antibacterial activity [1]: somewhat disappointing degree of antibacterial activity |
| CC(=O)NCCOCC1=C(C(=O)O)N2C(=O)CC2S1 (stereo not drawn) [compound 23, Sodium 2-(2-acetamidoethoxy)methylponom-3-carooxylate] | 31 | 4 | 16 | 10 | 1 | 25 | 2.5 | 2.5 | 25 |  |  |  |  |  |  |  |  |  |  |  | MIC ([2]; Klebsiella aerogenes A, Microtitre using Nutrient broth, inoculum 0.001 ml of an undilute overnight broth culture): 62 µg/mL; MIC ([4]; JT39, Escherichia coli JT 39, Microtitre using Nutrient broth, inoculum 0.001 ml of an undilute overnight broth culture, read-out: MIC Broth): 250 µg/mL; MIC ([5]; Proteus mirabilis C977, Microtitre using Nutrient broth, inoculum 0.001 ml of an undilute overnight broth culture, read-out: MIC Broth): 31 µg/mL; MIC ([6]; Pseudomonas aeruginosa A, Microtitre using Nutrient broth, inoculum 0.001 ml of an undilute overnight broth culture): > 500 µg/mL; MIC ([9]; Citrobacter freundii E8, DST agar + 10% horse blood, inoculum 0.001 ml of an undilute overnight broth culture, read-out: MIC Agar): 25 µg/mL; MIC ([11]; Serratia marcescens US20, DST agar + 10% horse blood, inoculum 0.001 ml of an undilute overnight broth culture, read-out: MIC Agar): 100 µg/mL; MIC ([12]; Streptococcus faecalis I, DST agar + 10% horse blood, inoculum 0.001 ml of an undilute overnight broth culture): > 100 µg/mL; MIC ([13]; Proteus morganii I580, DST agar + 10% horse blood, inoculum 0.001 ml of an undilute overnight broth culture, read-out: MIC Agar): > 100 µg/mL; MIC ([14]; Klebsiella aerogenes A, DST agar + 10% horse blood, inoculum 0.001 ml of an undilute overnight broth culture): 100 µg/mL; MIC ([18]; Streptococcus pneumoniae CN33, DST agar + 10% horse blood, inoculum 0.001 ml of an undilute overnight broth culture, read-out: MIC Agar): 0.5 µg/mL; MIC ([19]; Salmonella typhimurium CT10, DST agar + 10% horse blood, inoculum 0.001 ml of an undilute overnight broth culture): 25 µg/mL; MIC ([20]; JT39, Escherichia coli JT 39, DST agar + 10% horse blood, inoculum 0.001 ml of an undilute overnight broth culture, read-out: MIC Agar): > 100 µg/mL; MIC ([21]; Proteus rettgeri WM16, DST agar + 10% horse blood, inoculum 0.001 ml of an undilute overnight broth culture, read-out: MIC Agar): > 100 µg/mL; MIC ([22]; Staphylococcus aureus 1517, DST agar + 10% horse blood, inoculum 0.001 ml of an undilute overnight broth culture, read-out: MIC Agar): 50 µg/mL; MIC ([23]; Proteus mirabilis C977, DST agar + 10% horse blood, inoculum 0.001 ml of an undilute overnight broth culture, read-out: MIC Agar): 25 µg/mL; MIC ([24]; Pseudomonas aeruginosa A, DST agar + 10% horse blood, inoculum 0.001 ml of an undilute overnight broth culture): > 100 µg/mL; MIC ([25]; Proteus vulgaris W091, DST agar + 10% horse blood, inoculum 0.001 ml of an undilute overnight broth culture, read-out: MIC Agar): > 100 µg/mL |
| COCOCC1=C(C(=O)[O-])N2C(=O)C[C@H]2S1.[Na+] [compound 25, Sodium 2-methoxymethoxymethylpenem-3-carboxylate] | 16 |  |  | 2.5 |  | 5 |  |  |  | 16 | 125 | 16 | 500 | 2 | 8 | 12.5 | 0.5 | 0.2 | 2.5 | 5 | MIC [11, 39]: 25 µg/mL; MIC [12]: 50 µg/mL; MIC ([13]; I580, read-out: MIC Agar): > 50 µg/mL; MIC ([14]; Klebsiella aerogenes): 25 µg/mL; MIC [28]: 5 µg/mL; MIC ([17]; Bacillus subtilis): 1.2 µg/mL; MIC ([19]; TYPHIMURIUM): 5 µg/mL; MIC [20, 42]: > 50 µg/mL; MIC [29]: > 50 µg/mL; MIC ([21]; WM16, read-out: MIC Agar): 25 µg/mL; MIC [22, 43]: > 50 µg/mL; MIC [23, 44]: 12.5 µg/mL; MIC ([24]; Pseudomonas aeruginosa): > 50 µg/mL; MIC [25, 45]: > 50 µg/mL |
| CC(=O)NCOCC1=C(C(=O)[O-])N2C(=O)C[C@H]2S1.[Na+] [compound 29, Sodium 2-acetamidomethoxymethylpenem-3-carboxylate] | 16 |  |  | 2.5 |  | 5 |  |  |  | 62 | 125 | 31 | > 500 | 8 | 16 | 5 | 0.5 | 0.2 | 2.5 | 12.5 | MIC [11, 39]: 25 µg/mL; MIC [12]: 50 µg/mL; MIC ([13]; I580, read-out: MIC Agar): > 50 µg/mL; MIC ([14]; Klebsiella aerogenes): 50 µg/mL; MIC [28]: 5 µg/mL; MIC ([17]; Bacillus subtilis): 1.2 µg/mL; MIC ([19]; TYPHIMURIUM): 5 µg/mL; MIC [20, 42]: > 50 µg/mL; MIC [29]: > 50 µg/mL; MIC ([21]; WM16, read-out: MIC Agar): 50 µg/mL; MIC [22, 43]: 50 µg/mL; MIC [23, 44]: 12.5 µg/mL; MIC ([24]; Pseudomonas aeruginosa): > 50 µg/mL; MIC [25, 45]: > 50 µg/mL |
| CCOC(C)OCC1=C(C(=O)[O-])N2C(=O)C[C@H]2S1.[Na+] (stereo partly drawn) [compound 34, Sodium 2-(1-ethoxyethoxy)methylpenem-3-carboxylate] |  |  |  |  |  |  |  |  |  |  |  |  |  |  |  |  | 1 | 1 | 2.5 | 10 |  |
| CNC(=O)OCC1=C(C(=O)O)N2C(=O)CC2S1 (stereo not drawn) [compound 36, Sodium 2-N-methylcarbamoyloxymethylpenem-3-carboxylate] |  | 8 | 16 |  | 25 |  | 2.5 | 12.5 | 12.5 |  |  |  |  |  |  |  |  |  |  |  |  |
